The target in one experiment is T1, p110 delta (Homo sapiens, UniProt O00329).
T1 construct: purchased Upstate Group, Millipore; Dundee, UK
Kind of experiment: PI3K Isoform Inhibition Assay, p110 delta. The class given is biochemical. The settings on record: PI3K isoform inhibition assay of Example 901. How it is done: (§1) PI3K enzymatic activity was assayed by measuring the amount of product phosphatidylinositol […] (PIP3) formed from substrate 4,5 phosphatidylinositol 4,5-phosphate (PIP2) using a fluorescence polarization displacement assay. The decrease in fluorescence polarization of a fluorescent PIP3 probe is measured as it is displaced from a PIP3-binding protein GRP-1 detector by PI3K-catalyzed product. […] The kinase reactions were initiated by the addition of 40 ng/mL p110α/p85α, 300 ng/mL p110β/p85α, 40 ng/mL p110γ, or 40 ng/mL […] (Upstate Group, Millipore; Dundee, UK), and 10 μM PIP2 (Echelon Biosciences) to the wells. […] After 60 minutes of incubation at room temperature to allow equilibration of labeled and unlabeled PIP3 binding, the parallel and perpendicular components of the fluorescence emissions from each sample were measured at an excitation wavelength of 530 nm and an emission wavelength of 590 nm using an Envision fluorescent plate reader with a rhodamine filter (PerkinElmer Life and Analytical Sciences; Wellesley, Mass.). The assay is capable of detecting 0.1-2.0 μM PIP3 product. The IC50 values were obtained by fitting the dose-dependent inhibition data to a 4-parameter equation using Assay Explorer software (MDL, San Ramon, Calif.).
(§2) The Formula I compound was serially diluted in 100% DMSO. The kinase reaction was incubated for 1 h at room temperature, and the reaction was terminated by the addition of PBS. IC50 values were subsequently determined using sigmoidal dose-response curve fit (variable slope).
The four Class I PI 3-kinases are cloned into baculovirus vectors as follows: […]

The next experiment deals with T2, p110 alpha (Homo sapiens, UniProt P42336).
T2 construct: purchased Upstate Group, Millipore; Dundee, UK
The experiment is described as follows: PI3K Isoform Inhibition Assay, p110 alpha (delta/alpha selectivity). The settings on record: ratio of biochemical IC50 values. How it is done:
as §1, §2
The same protocol may be used to establish IC50 values for p110α (alpha) PI3K binding. […]

The source of these data is patent US8563540B2, “Pyrido[3,2-d]pyrimidine PI3K delta inhibitor compounds and methods of use” (Genetech, Inc., priority 2010, dated 2013).

T1 sequence (O00329 whole entry): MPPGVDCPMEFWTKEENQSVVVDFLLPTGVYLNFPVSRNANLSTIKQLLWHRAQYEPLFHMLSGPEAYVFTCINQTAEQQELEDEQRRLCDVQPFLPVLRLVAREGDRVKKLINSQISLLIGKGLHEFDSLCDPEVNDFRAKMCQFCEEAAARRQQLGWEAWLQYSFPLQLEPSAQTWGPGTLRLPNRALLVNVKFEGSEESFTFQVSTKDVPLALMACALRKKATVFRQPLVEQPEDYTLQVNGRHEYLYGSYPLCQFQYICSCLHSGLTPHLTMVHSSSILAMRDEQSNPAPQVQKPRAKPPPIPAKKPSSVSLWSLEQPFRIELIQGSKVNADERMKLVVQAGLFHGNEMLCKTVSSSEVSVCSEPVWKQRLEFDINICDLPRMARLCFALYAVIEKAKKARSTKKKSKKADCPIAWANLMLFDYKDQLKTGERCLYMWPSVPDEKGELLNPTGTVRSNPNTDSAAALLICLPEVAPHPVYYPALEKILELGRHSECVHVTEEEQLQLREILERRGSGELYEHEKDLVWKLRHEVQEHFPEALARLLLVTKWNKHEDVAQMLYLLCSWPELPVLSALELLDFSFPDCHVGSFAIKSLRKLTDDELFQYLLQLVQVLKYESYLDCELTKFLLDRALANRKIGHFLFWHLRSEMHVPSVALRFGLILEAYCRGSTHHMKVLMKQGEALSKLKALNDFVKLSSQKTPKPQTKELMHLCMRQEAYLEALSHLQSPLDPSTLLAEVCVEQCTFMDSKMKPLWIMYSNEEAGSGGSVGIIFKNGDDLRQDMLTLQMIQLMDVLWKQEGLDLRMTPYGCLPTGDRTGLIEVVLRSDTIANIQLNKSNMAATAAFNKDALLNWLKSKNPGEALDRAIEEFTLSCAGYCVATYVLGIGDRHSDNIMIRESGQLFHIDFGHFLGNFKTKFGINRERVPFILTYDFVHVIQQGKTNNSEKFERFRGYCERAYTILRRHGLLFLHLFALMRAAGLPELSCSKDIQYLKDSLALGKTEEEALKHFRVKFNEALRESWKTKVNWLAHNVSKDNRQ
T1 sequence (P27986 whole entry partner): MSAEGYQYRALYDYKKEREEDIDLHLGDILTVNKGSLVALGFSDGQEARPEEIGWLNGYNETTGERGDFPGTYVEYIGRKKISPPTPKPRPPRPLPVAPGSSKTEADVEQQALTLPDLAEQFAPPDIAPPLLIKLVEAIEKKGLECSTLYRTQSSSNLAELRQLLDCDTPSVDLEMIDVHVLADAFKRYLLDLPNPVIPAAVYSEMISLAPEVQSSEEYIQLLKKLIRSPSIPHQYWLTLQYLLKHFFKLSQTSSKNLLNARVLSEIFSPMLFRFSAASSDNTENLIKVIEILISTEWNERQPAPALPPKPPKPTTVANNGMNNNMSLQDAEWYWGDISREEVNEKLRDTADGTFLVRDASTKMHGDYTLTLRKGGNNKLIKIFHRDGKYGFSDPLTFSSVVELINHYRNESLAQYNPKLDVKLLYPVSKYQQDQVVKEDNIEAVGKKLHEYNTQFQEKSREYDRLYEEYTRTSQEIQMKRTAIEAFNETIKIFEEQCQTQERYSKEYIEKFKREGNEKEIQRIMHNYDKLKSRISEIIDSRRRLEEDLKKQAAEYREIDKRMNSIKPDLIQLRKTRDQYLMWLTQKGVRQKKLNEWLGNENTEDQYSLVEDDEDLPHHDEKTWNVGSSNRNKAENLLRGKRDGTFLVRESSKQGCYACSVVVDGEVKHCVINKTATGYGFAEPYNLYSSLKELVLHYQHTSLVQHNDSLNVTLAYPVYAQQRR
T2 sequence (P42336 whole entry): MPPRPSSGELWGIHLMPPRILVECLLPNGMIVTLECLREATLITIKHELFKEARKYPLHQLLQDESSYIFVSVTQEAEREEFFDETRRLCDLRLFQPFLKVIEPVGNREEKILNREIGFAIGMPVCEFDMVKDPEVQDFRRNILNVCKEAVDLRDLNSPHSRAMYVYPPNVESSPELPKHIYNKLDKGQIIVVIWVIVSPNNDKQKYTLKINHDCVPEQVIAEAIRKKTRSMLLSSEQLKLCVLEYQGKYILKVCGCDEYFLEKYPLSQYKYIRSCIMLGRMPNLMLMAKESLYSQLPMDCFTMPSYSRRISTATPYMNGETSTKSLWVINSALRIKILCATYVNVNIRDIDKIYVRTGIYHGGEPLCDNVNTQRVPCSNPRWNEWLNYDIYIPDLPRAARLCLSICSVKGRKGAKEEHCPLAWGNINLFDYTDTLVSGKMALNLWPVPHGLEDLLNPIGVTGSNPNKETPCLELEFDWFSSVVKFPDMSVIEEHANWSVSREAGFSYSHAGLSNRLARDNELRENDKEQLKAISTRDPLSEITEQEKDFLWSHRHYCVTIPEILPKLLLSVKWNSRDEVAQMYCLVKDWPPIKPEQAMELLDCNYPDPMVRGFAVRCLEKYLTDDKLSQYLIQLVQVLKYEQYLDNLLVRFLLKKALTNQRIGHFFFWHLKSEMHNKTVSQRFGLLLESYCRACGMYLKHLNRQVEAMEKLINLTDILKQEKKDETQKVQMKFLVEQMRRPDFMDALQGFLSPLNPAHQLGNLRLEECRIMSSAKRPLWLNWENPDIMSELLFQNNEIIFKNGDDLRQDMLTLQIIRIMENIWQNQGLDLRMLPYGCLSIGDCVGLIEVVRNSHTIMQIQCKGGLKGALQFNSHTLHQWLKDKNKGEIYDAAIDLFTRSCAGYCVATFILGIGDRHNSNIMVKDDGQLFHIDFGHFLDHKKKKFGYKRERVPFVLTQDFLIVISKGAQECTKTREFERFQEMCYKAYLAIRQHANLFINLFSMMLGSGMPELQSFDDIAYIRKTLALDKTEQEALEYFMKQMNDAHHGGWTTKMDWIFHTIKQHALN
T2 sequence (P27986 whole entry partner): as the sequence (P27986 whole entry partner) above

A word on the IC50: it is the point on the concentration scale where inhibition reaches its midpoint. A lower IC50 goes with higher potency. In the case of `CC(C)(C(N)=O)N1CCN(Cc2ccc3nc(-c4c(F)ccc5[nH]ccc45)nc(N4CCOCC4)c3n2)CC1` [Compound 121, 2-(4-((2-(5-fluoro-1H-indol-4-yl)-4-morpholinopyrido[3,2-d]pyrimidin-6-yl)methyl)piperazin-1-yl)-2-methylpropanamide], the IC50 against p110 delta was 1.29 nM. For the same compound, the “IC50 p110 alpha/IC50 p110 delta” value on p110 alpha is reported as 203.

For the compound `Cc1cc(-c2nc(N3CCOCC3)c3nc(CN4CCC(C(C)(C)O)CC4)ccc3n2)cnc1N` [Compound 132, 2-(1-((2-(6-amino-5-methylpyridin-3-yl)-4-morpholinopyrido[3,2-d]pyrimidin-6-yl)methyl)piperidin-4-yl)propan-2-ol], on p110 delta, the IC50 came to 22.4 nM. The “IC50 p110 alpha/IC50 p110 delta” value at p110 alpha came to 10.

In turn, `CC(C)(O)C1CCN(Cc2ccc3nc(-c4cccc5[nH]ncc45)nc(N4CCOCC4)c3n2)CC1` [Compound 110, 2-(1-((2-(1H-indazol-4-yl)-4-morpholinopyrido[3,2-d]pyrimidin-6-yl)methyl)piperidin-4-yl)propan-2-ol] displayed an IC50 at p110 delta of 6.32 nM. Besides, the “IC50 p110 alpha/IC50 p110 delta” value at p110 alpha came to 21.

`CNc1ncccc1-c1nc(N2CCOCC2)c2nc(CN3CCC(C(C)(C)O)CC3)ccc2n1` [Compound 160, 2-(1-((2-(2-(methylamino)pyridin-3-yl)-4-morpholinopyrido[3,2-d]pyrimidin-6-yl)methyl)piperidin-4-yl)propan-2-ol] returned an IC50 on p110 delta of 98.3 nM. Besides, the “IC50 p110 alpha/IC50 p110 delta” value on p110 alpha was found to be 21.

`CO[C@H](C)c1nc2ccccc2n1-c1nc(N2CCOCC2)c2nc(CN3CCC(C(C)(C)O)CC3)ccc2n1` [Compound 115, (R)-2-(1-((2-(2-(1-methoxyethyl)-1H-benzo[d]imidazol-1-yl)-4-morpholinopyrido[3,2-d]pyrimidin-6-yl)methyl)piperidin-4-yl)propan-2-ol] showed an IC50 against p110 delta of 7.11 nM. The “IC50 p110 alpha/IC50 p110 delta” value at p110 alpha came to 58.

In the case of `O=S1(=O)CCN(C2CN(Cc3ccc4nc(-c5c(F)ccc6[nH]ccc56)nc(N5CCOCC5)c4n3)C2)CC1` [Compound 129, 4-(2-(5-fluoro-1H-indol-4-yl)-6-((3-(1,1-dioxo)thiomorpholinoazetidin-1-yl)methyl)pyrido[3,2-d]pyrimidin-4-yl)morpholine], half-maximal inhibition against p110 delta (IC50) was put at 0.845 nM. In addition, on p110 alpha, the “IC50 p110 alpha/IC50 p110 delta” value is reported as 440.

With `CCn1c(=O)c2ccccc2n1-c1nc(N2CCOCC2)c2nc(CN3CCC(C(C)(C)O)CC3)ccc2n1` [Compound 104, 2-ethyl-1-(6-((4-(2-hydroxypropan-2-yl)piperidin-1-yl)methyl)-4-morpholinopyrido[3,2-d]pyrimidin-2-yl)-1H-indazol-3(2H)-one], the IC50 at p110 delta is 11.8 nM. Moreover, at p110 alpha, the “IC50 p110 alpha/IC50 p110 delta” value was determined as 83.

`CCc1nc2ccccc2n1-c1nc(N2CCOCC2)c2nc(CN3CC(N4CCNC(=O)C4)C3)ccc2n1` [Compound 134, 4-(1-((2-(2-ethyl-1H-benzo[d]imidazol-1-yl)-4-morpholinopyrido[3,2-d]pyrimidin-6-yl)methyl)azetidin-3-yl)piperazin-2-one] yielded an IC50 at p110 delta of 3.56 nM. Besides, the “IC50 p110 alpha/IC50 p110 delta” value at p110 alpha was 10.9.

As for `COC1CN(c2cnc3c(N4CCOCC4)nc(N4CC(OC)C4)nc3c2)C1` [Compound 199, 4-(2,7-bis(3-methoxyazetidin-1-yl)pyrido[3,2-d]pyrimidin-4-yl)morpholine], at p110 delta, the IC50 turned out to be 728 nM. Besides, the “IC50 p110 alpha/IC50 p110 delta” value on p110 alpha was determined as 0.95.

The compound `Cc1nc2ccccc2n1-c1nc(N2CCOCC2)c2nc(CN3CCC(C(C)(C)O)CC3)ccc2n1` [Compound 101, 2-(1-((2-(2-methyl-1H-benzo[d]imidazol-1-yl)-4-morpholinopyrido[3,2-d]pyrimidin-6-yl)methyl)piperidin-4-yl)propan-2-ol] had an IC50 on p110 delta of 12.5 nM. In addition, the “IC50 p110 alpha/IC50 p110 delta” value on p110 alpha was 33.

For the compound `COC(=O)C(C)(C)N1CC(Cc2ccc3nc(-n4c(C(C)C)nc5ccccc54)nc(N4CCOCC4)c3n2)C1` [Compound 117, methyl 2-(3-((2-(2-isopropyl-1H-benzo[d]imidazol-1-yl)-4-morpholinopyrido[3,2-d]pyrimidin-6-yl)methyl)azetidin-1-yl)-2-methylpropanoate], at p110 delta, the IC50 was found to be 5.09 nM. For the same compound, the “IC50 p110 alpha/IC50 p110 delta” value at p110 alpha amounted to 37.

In the case of `CC1(COc2ccc3nc(-c4cnc(N)nc4)nc(N4CCOCC4)c3n2)COC1` [Compound 188, 5-(6-((3-methyloxetan-3-yl)methoxy)-4-morpholinopyrido[3,2-d]pyrimidin-2-yl)pyrimidin-2-amine], on p110 delta, the IC50 is 8.69 nM. Also, the “IC50 p110 alpha/IC50 p110 delta” value at p110 alpha was determined as 0.18.

`Cc1cnc2c(N3CCOCC3)nc(-c3cnc(N)nc3)nc2c1` [Compound 197, 5-(7-methyl-4-morpholinopyrido[3,2-d]pyrimidin-2-yl)pyrimidin-2-amine] yielded an IC50 against p110 delta of 5.72 nM. The “IC50 p110 alpha/IC50 p110 delta” value at p110 alpha amounted to 0.20.

In the case of `Fc1ccc2[nH]ccc2c1-c1nc(N2CCOCC2)c2nc(CN3CC(N4CCC(F)(F)CC4)C3)ccc2n1` [Compound 125, 4-(6-((3-(4,4-difluoropiperidin-1-yl)azetidin-1-yl)methyl)-2-(5-fluoro-1H-indol-4-yl)pyrido[3,2-d]pyrimidin-4-yl)morpholine], it took 1.52 nM to reach half-maximal inhibition on p110 delta (IC50). Further, the “IC50 p110 alpha/IC50 p110 delta” value at p110 alpha was 246.

Compound `CC(C)(O)C1CCN(Cc2ccc3nc(-c4cccc5[nH]ccc45)nc(N4CCOCC4)c3n2)CC1` [Compound 109, 2-(1-((2-(1H-indol-4-yl)-4-morpholinopyrido[3,2-d]pyrimidin-6-yl)methyl)piperidin-4-yl)propan-2-ol] displayed an IC50 against p110 delta of 2.82 nM. For the same compound, the “IC50 p110 alpha/IC50 p110 delta” value on p110 alpha is over 350.

Turning to `CC(C)(O)C1CCN(Cc2ccc3nc(-c4c[nH]c5ccccc45)nc(N4CCOCC4)c3n2)CC1` [Compound 133, 2-(1-((2-(1H-indol-3-yl)-4-morpholinopyrido[3,2-d]pyrimidin-6-yl)methyl)piperidin-4-yl)propan-2-ol], the IC50 at p110 delta came out at 23.8 nM. In addition, the “IC50 p110 alpha/IC50 p110 delta” value on p110 alpha is listed as 22.

`COC1CN(c2cnc3c(N4CCOCC4)nc(-c4cnc(N)nc4)nc3c2)C1` [Compound 200, 5-(7-(3-methoxyazetidin-1-yl)-4-morpholinopyrido[3,2-d]pyrimidin-2-yl)pyrimidin-2-amine]: on p110 delta, 716 nM corresponded to half-maximal inhibition (IC50). Also, the “IC50 p110 alpha/IC50 p110 delta” value on p110 alpha came to 0.97.

Take `Fc1ccc2[nH]ccc2c1-c1nc(N2CCOCC2)c2nc(CN3CC(N4CCOCC4)C3)ccc2n1` [Compound 126, 4-(1-((2-(5-fluoro-1H-indol-4-yl)-4-morpholinopyrido[3,2-d]pyrimidin-6-yl)methyl)azetidin-3-yl)morpholine]: at p110 delta, inhibition was half-maximal at 1.14 nM (IC50). Further, at p110 alpha, the “IC50 p110 alpha/IC50 p110 delta” value is recorded as 257.

As for `Cc1nc(N)ccc1-c1nc(N2CCOCC2)c2nc(CN3CCC(C(C)(C)O)CC3)ccc2n1` [Compound 116, 2-(1-((2-(6-amino-2-methylpyridin-3-yl)-4-morpholinopyrido[3,2-d]pyrimidin-6-yl)methyl)piperidin-4-yl)propan-2-ol], half-maximal inhibition against p110 delta (IC50) was put at 9.33 nM. Also, the “IC50 p110 alpha/IC50 p110 delta” value at p110 alpha came out at 43.

As to `CC(C)(O)C1CCN(Cc2ccc3nc(-c4ccc(N)nc4)nc(N4CCOCC4)c3n2)CC1` [Compound 122, 2-(1-((2-(6-aminopyridin-3-yl)-4-morpholinopyrido[3,2-d]pyrimidin-6-yl)methyl)piperidin-4-yl)propan-2-ol], the IC50 against p110 delta worked out at 5.42 nM. Also, the “IC50 p110 alpha/IC50 p110 delta” value at p110 alpha turned out to be 15.
